This passage reports Ki results from patent publication US20110086834A1, “ALKYNYL ALCOHOLS AS KINASE INHIBITORS” (AMGEN INC., priority 2008, published 2011).

Each structure is given as a SMILES string. Some results are limits rather than exact numbers.

The target in this assay is T1, NIK (Homo sapiens, UniProt Q99558).
T1 construct: Both assays utilize a truncated form of NIK containing only the catalytic domain; made in house; host or cells: baculovirus expression system (insect cells implied)
T1 sequence (Q99558 400-655 limits assumed): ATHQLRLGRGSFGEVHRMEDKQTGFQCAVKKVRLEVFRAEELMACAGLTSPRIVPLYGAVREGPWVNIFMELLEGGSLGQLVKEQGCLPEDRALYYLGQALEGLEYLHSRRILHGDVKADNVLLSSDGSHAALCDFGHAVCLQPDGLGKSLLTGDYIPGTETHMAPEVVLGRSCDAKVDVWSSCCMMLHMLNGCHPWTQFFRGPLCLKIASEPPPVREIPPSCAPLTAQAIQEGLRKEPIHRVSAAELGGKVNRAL
Briefly: homogenous time resolved fluorescence (HTRF) assay for NIK Ki measurement. It counts as biochemical. The following applies: truncated NIK (catalytic domain only), autophosphorylation; 10 nM enzyme; 20, 100, 200 or 500 μM ATP; room temperature, 2 hours; read-out: Ki activity in the homogenous time resolved fluorescence (HTRF) assay for NIK.
The Ki is the dissociation constant of the complex between target and ligand, obtained from inhibition or displacement. With `COCCOCCn1cc(-c2nc(N)ncc2Cl)c2cc(C#CC3(O)CCCC3)ccc21` [Example 124, 1-(2-(3-(2-amino-5-chloropyrimidin-4-yl)-1-(2-(2-methoxyethoxy)ethyl)-1H-indol-5-yl)ethynyl)cyclopentanol], the Ki was below 1 µM.

With `COc1cc(Nc2nccc(-n3ccc4ccc(C#CC5(O)CCCC5)cc43)n2)cc(OC)c1OC` [Example 259, 1-((1-(2-((3,4,5-tris(methyloxy)phenyl)amino)-4-pyrimidinyl)-1H-indol-6-yl)-ethynyl)cyclopentanol], the Ki is below 1 µM.

With `CC(O)(C#Cc1ccc2[nH]cc(-c3cnco3)c2c1)c1nccs1` (stereo not shown) [Example 106, 4-(3-(oxazol-5-yl)-1H-indol-5-yl)-2-(thiazol-2-yl)but-3-yn-2-ol], the Ki was below 1 µM.

With `C[C@]1(CCO)CN(c2nc(N)ncc2Cl)c2cc(C#CC3(O)CCCC3)ccc21` (single isomer, unassigned) [Example 52, 1-(03R*)-1-(2-amino-5-chloro-4-pyrimidinyl)-3-(2-hydroxyethyl)-3-methyl-2,3-dihydro-1H-indol-6-yl)ethynyl)cyclopentanol], the Ki is below 1 µM.

Turning to `COCCOCCn1cc(-c2nc(N)ncc2Cl)c2cc(C#CC3(O)CCCCC3)ccc21` [Example 131, 1-(2-(3-(2-amino-5-chloropyrimidin-4-yl)-1-(2-(2-methoxyethoxy)ethyl)-1H-indol-5-yl)ethynyl)cyclohexanol], the Ki is below 1 µM.

Turning to `CC(C)C(C)(O)C#Cc1ccc2c(c1)N(c1ccnc(N)n1)CC2` (stereo not shown) [Example 266, 1-(1-(2-Amino-4-pyrimidinyl)-2,3-dihydro-1H-indol-6-yl)-3,4-dimethyl-1-pentyn-3-ol], the Ki fell in the range of 1 to 30 µM.

In the case of `CC1(C)CN(c2nc(N)nc3[nH]cnc23)c2cc(C#CC3(O)CCCC3)ccc21` [Example 75, 1-((1-(2-amino-9H-purin-6-yl)-3,3-dimethyl-2,3-dihydro-1H-indol-6-yl)ethynyl)cyclopentanol], the Ki is below 1 µM.

Consider `CC(C)(C)C(=O)n1cc(-c2nc(N)ncc2Cl)c2cc(C#CC3(O)CCCC3)ccc21` [Example 122, 1-(3-(2-amino-5-chloropyrimidin-4-yl)-5-(2-(1-hydroxycyclopentyl)ethynyl)-1H-indol-1-yl)-2,2-dimethylpropan-1-one], for which the Ki was below 1 µM.

As to `CC(O)(C#Cc1ccc(O[C@H]2CCOC2)c(Nc2ccncc2)c1)c1nccs1` (stereo partly shown) [Example 169], the Ki lay within 1 to 30 µM.

As for `CC(O)(C#Cc1ccc2ncc(-c3ccnc(N)n3)n2c1)c1nccs1` (stereo not shown) [Example 292, 4-(3-(2-Amino-4-pyrimidinyl)imidazo[1,2-a]pyridin-6-yl)-2-(1,3-thiazol-2-yl)-3-butyn-2-ol], the Ki was below 1 µM.

With `COCCOc1ccc(Nc2ncnc(N3CC(C)(C)c4ccc(C#CC5(O)CCCC5)cc43)n2)cc1` [Example 17, 1-(2-(1-(4-(4-(2-methoxyethoxy)phenylamino)-1,3,5-triazin-2-yl)-3,3-dimethylindolin-6-yl)ethynyl)cyclopentanol], the inhibition constant Ki was 1 to 30 µM.

In the case of `Cc1cc(C(C)(O)C#Cc2ccc3c(c2)N(c2nc(N)ncc2Cl)CC32CCOCC2)no1` (racemic) [Example 210, (rac)-4-(1-(2-Amino-5-chloro-4-pyrimidinyl)-1,2,2′,3′,5′,6′-hexahydrospiro[indole-3,4′-pyran]-6-yl)-2-(5-methyl-3-isoxazolyl)-3-butyn-2-ol], the Ki is below 1 µM.

Regarding `Cn1c2c(c3cc(C#CC4(O)CCCC4)ccc31)-c1nc(N)ncc1CNC2=O` [Example 245, 2-Amino-1′-((1-hydroxycyclopentyl)ethynyl)-8-methyl-5,8-dihydropyrimido[4′,5′:5,6]azepino[3,4-b]indol-7(6H)-one], the Ki was below 1 µM.

As to `CN1CCC2(CC1)CN(c1nc(N)ncc1F)c1cc(C#CC3(O)CCCC3)ccc12` [Example 186, 1-((1-(2-amino-5-fluoropyrimidin-4-yl)-1′-methylspiro[indoline-3,4′-piperidine]-6-yl)ethynyl)cyclopentanol], the Ki is below 1 µM.

As for `CC(O)(C#Cc1ccc2c(c1)N(c1ccnc(N)n1)CC2)c1ncco1` (stereo not shown) [Example 291, 4-(1-(2-amino-4-pyrimidinyl)-2,3-dihydro-1H-indol-6-yl)-2-(1,3-oxazol-2-yl)-3-butyn-2-ol], the Ki was below 1 µM.

As for `Cc1cc(C(C)(O)C#Cc2ccc(C)c(Nc3nc(N)ncc3Cl)c2)no1` (stereo not shown) [Example 161, 4-(3-(2-Amino-5-chloropyrimidin-4-ylamino)-4-methylphenyl)-2-(5-methylisoxazol-3-yl)but-3-yn-2-ol], the Ki was below 1 µM.

With `C[C@@](O)(C#Cc1ccc2c(c1)N(c1nc(N)ncc1Cl)CC21CCS(=O)(=O)CC1)c1nccs1` [Example 218, (2R)-4-(1-(2-Amino-5-chloro-4-pyrimidinyl)-1′,1′-dioxido-1,2,2′,3′,5′,6′-hexahydrospiro[indole-3,4′-thiopyran]-6-yl)-2-(1,3-thiazol-2-yl)-3-butyn-2-ol], the Ki is below 1 µM.

For `Cc1nc(C(C)(O)C#Cc2ccc3c(c2)N(c2nc(N)ncc2Cl)CC3)no1` (stereo not shown) [Example 2, 4-(1-(2-amino-5-chloropyrimidin-4-yl)indolin-6-yl)-2-(5-methyl-1,2,4-oxadiazol-3-yl)but-3-yn-2-ol], the Ki was below 1 µM.

Turning to `CC1(CO)CN(c2nc(N)ncc2Cl)c2cc(C#CC3(O)CCCC3)ccc21` (stereo not shown) [Example 54, 1-((1-(2-amino-5-chloro-4-pyrimidinyl)-3-(hydroxymethyl)-3-methyl-2,3-dihydro-1H-indol-6-yl)ethynyl)cyclopentanol], the Ki was below 1 µM.

`Cc1cc([C@@](C)(O)C#Cc2ccc3c(c2)N(c2nc(N)ncc2Cl)CC3)on1` (single isomer, unassigned) [Example 28]: the Ki was in the range of 1 to 30 µM.

For `CC(O)(C#Cc1ccc2c(c1)N(c1nc(N)ncc1Cl)CC2)c1ncc(C#N)s1` (stereo not shown) [Example 34, 2-(4-(1-(2-amino-5-chloropyrimidin-4-yl)indolin-6-yl)-2-hydroxybut-3-yn-2-yl)thiazole-5-carbonitrile], the Ki was below 1 µM.

Consider `Nc1ncc(Cl)c(-c2c[nH]c3ccc(C#CC4(O)CCCC4)cc23)n1` [Example 107, 1-(2-(3-(2-amino-5-chloropyrimidin-4-yl)-1H-indol-5-yl)ethynyl)cyclopentanol], for which the Ki was below 1 µM.

As to `CC(O)(C#Cc1ccc2c(c1)N(c1nc(N)ncc1Cl)CC2(CO)CO)c1nccs1` (stereo not shown) [Example 60, 4-(1-(2-amino-5-chloro-4-pyrimidinyl)-3,3-bis(hydroxymethyl)-2,3-dihydro-1H-indol-6-yl)-2-(1,3-thiazol-2-yl)-3-butyn-2-ol], the inhibition constant (Ki) was below 1 µM.

In the case of `CN1CC[C@@]2(C1)CN(c1nc(N)ncc1Cl)c1cc(C#C[C@@](C)(O)c3nccs3)ccc12` (relative stereo) [Example 195, (2R)-4-((3R*)-1-(2-Amino-5-chloro-4-pyrimidinyl)-1′-methyl-1,2-dihydrospiro[indole-3,3′-pyrrolidin]-6-yl)-2-(1,3-thiazol-2-yl)-3-butyn-2-ol], the Ki is below 1 µM.

Take `COc1cc(C#CC2(O)CCCC2)cc2c1ccn2-c1ccnc(N)n1` [Example 98, 1-(2-(1-(2-aminopyrimidin-4-yl)-4-methoxy-1H-indol-6-yl)ethynyl)cyclopentanol]: the Ki is below 1 µM.
